Measurements from ChEMBL document CHEMBL6103618, “Discovery of Novel Oxazolo[4,3-f]purine Derivatives as Antitumor Agents through PPIA Interaction” (J Med Chem, 2025).
pIC50: −log10 of the molar value. The source made the active and inactive calls. The calls are words filed in the database; no cut-off is given here.

Legend:
HCT-116 [1] = assay: Effect on TK1 expression in human HCT-116 cells upto 6 uM incubated for 30 mins followed by pronase addition measured after 30 mins by DARTS assay; type: functional, cell-based
[2] = Toxicity in BALB/c mouse implanted with mouse CT26 cells assessed as change in body weight at 15 to 45 mg/kg, ip qd treated for 14 days; type: organism-based; settings: in vivo, 336 h, dose 15-45 mg/kg, time 14 day
HCT-116 [3] = assay: Induction of cell cycle arrest in human HCT-116 cells assessed as accumulation at G1 phase at 1.2 uM incubated for 48 hrs by PI staining based flow cytometry (reference value: 59.37 %); type: functional
HCT-116 [4] = assay: Antiproliferative activity against human HCT-116 cells at 0.3 to 1.2 uM incubated for 48 hrs by EdU uptake assay; type: functional, cell-based; settings: dose 0.3-1.2 µM
HCT-116 [5] = assay: Effect on SET expression in human HCT-116 cells upto 6 uM incubated for 30 mins followed by pronase addition measured after 30 mins by DARTS assay; type: functional, cell-based
[6] = Acute toxicity in BALB/c mouse assessed as death rate at 500 mg/kg, ip measured for 14 days; type: organism-based; settings: both, in vivo, time 14 day, read-out: Activity
HCT-116 [7] = assay: Induction of ER stress in human HCT-116 cells at 0.3 to 1.2 uM incubated for 48 hrs by ER-Tracker Red dye based analysis; type: functional, cell-based; settings: dose 0.3-1.2 µM
HCT-116 [8] = assay: Induction of cell cycle arrest in human HCT-116 cells assessed as accumulation at G1 phase at 0.3 uM incubated for 48 hrs by PI staining based flow cytometry (reference value: 59.37 %); type: functional
HCT-116 [9] = assay: Induction of cell cycle arrest in human HCT-116 cells assessed as accumulation at G1 phase at 0.6 uM incubated for 48 hrs by PI staining based flow cytometry (reference value: 59.37 %); type: functional
SW480 = assay: Antiproliferative activity against human SW480 cells assessed as inhibition of cell viability incubated for 48 hrs by CCK8 assay; type: functional, cell-based; settings: SW480, 48 h
HCT-116 [10] = assay: Induction of apoptosis in human HCT-116 cells assessed as decrease in Bcl-2 level at 1.2 uM in presence of NAC by Western blot analysis; type: functional, cell-based
Homo sapiens = species on record: Homo sapiens; assay: Disruption of PPIA/CD147 (unknown origin) interaction by Co-IP assay
HCT-116 [11] = assay: Induction of mitochondrial dysfunction in human HCT-116 cells assessed as decrease in ATP6 level at 0.3 to 1.2 uM by Western blot analysis; type: functional, cell-based; settings: dose 0.3-1.2 µM
HCT-116 [12] = assay: Anti-migration activity in human HCT-116 cells incubated for 24 hrs by wound healing assay; type: functional, cell-based; settings: dose 0.3-1.2 µM
CT26 [13] = assay: Antitumor activity against mouse CT26 cells implanted in BALB/c mouse assessed as tumor growth inhibition administered intraperitoneally once daily for 14 days; type: functional; settings: dose 15-45 mg/kg, route ip, time 14.0 day
HCT-116 [14] = assay: Inhibition of colony formation in human HCT-116 cells incubated for 48 hrs followed by fresh media replacement without compound on every 72 hrs for 14 days by crystal violet staining based analysis; type: functional, cell-based; settings: dose 0.3-1.2 µM
[15] = Toxicity in BALB/c mouse implanted with mouse CT26 cells assessed as injury in spleen at 15 to 45 mg/kg, ip qd treated for 14 days by H and E staining based analysis; type: organism-based; settings: in vivo, 336 h, dose 15-45 mg/kg, time 14 day
HCT-116 [16] = assay: Anti-proliferative activity against human HCT-116 cells harboring siNC assessed as decrease in p-JNK level at 1.2 uM by Western blot analysis; type: functional, cell-based
HCT-116 [17] = assay: Induction of apoptosis in human HCT-116 cells harboring siNC assessed as late apoptotic cells at 1.2 uM by Annexin V-FITC/PI staining based flow cytometry (reference value: 1.35 %); type: functional
HCT-116 [18] = assay: Inhibition of colony formation in human HCT-116 cells at 1.2 uM in presence of NAC by crystal violet staining based analysis; type: functional, cell-based
HCT-116 [19] = assay: Induction of intracellular ROS generation in human HCT-116 cells harboring siPPIA-3 at 1.2 uM by flow cytometry (reference value: 15.4 %); type: functional
HCT-116 [20] = assay: Induction of mitochondrial dysfunction in human HCT-116 cells at 0.3 to 1.2 uM by JC-1 dye based analysis; type: functional, cell-based; settings: dose 0.3-1.2 µM
HCT-116 [21] = assay: Induction of apoptosis in human HCT-116 cells assessed as decrease in p-ERK1/2 level by Western blot analysis; type: functional, cell-based; settings: dose 0.3-1.2 µM
HCT-116 [22] = assay: Induction of apoptosis in human HCT-116 cells assessed as decrease in Bcl-2 level at 0.3 to 1.2 uM incubated for 48 hrs by Western blot analysis; type: functional, cell-based; settings: dose 0.3-1.2 µM
[23] = Toxicity in BALB/c mouse implanted with mouse CT26 cells assessed as abnormality in kidney at 15 to 45 mg/kg, ip qd treated for 14 days by H and E staining based analysis; type: organism-based; settings: in vivo, 336 h, dose 15-45 mg/kg, time 14 day
[24] = target: T1, Peptidyl-prolyl cis-trans isomerase A (Homo sapiens, UniProt P62937); assay: Binding affinity to PPIA in human HCT-116 cells assessed as increase in thermal stability at 16 uM incubated for 30 mins followed by heat exposure at 40 to 60 degreeC for 3 mins by CETSA; type: cell-based; settings: time 33.0 min
HCT-116 [25] = assay: Induction of apoptosis in human HCT-116 cells assessed as late apoptotic cells at 1.2 uM incubated for 48 hrs by Annexin V-FITC/PI staining based flow cytometry (reference value: 1.55 %); type: functional
HCT-116 [26] = assay: Induction of apoptosis in human HCT-116 cells assessed as early apoptotic cells at 1.2 uM incubated for 48 hrs by Annexin V-FITC/PI staining based flow cytometry (reference value: 1.12 %); type: functional
HCT-116 [27] = assay: Induction of apoptosis in human HCT-116 cells assessed as decrease in p-p38 level by Western blot analysis; type: functional, cell-based; settings: dose 0.3-1.2 µM
HCT-116 [28] = assay: Induction of apoptosis in human HCT-116 cells assessed as increase in Bax level at 0.3 to 1.2 uM incubated for 48 hrs by Western blot analysis; type: functional, cell-based; settings: dose 0.3-1.2 µM
HeLa = assay: Antiproliferative activity against human HeLa cells assessed as inhibition of cell viability incubated for 48 hrs by CCK8 assay; type: functional, cell-based
CT26 [29] = assay: Antiproliferative activity against mouse CT26 cells assessed as inhibition of cell viability incubated for 48 hrs by CCK8 assay; type: functional, cell-based; settings: CT26, 48 h
[30] = Toxicity in BALB/c mouse implanted with mouse CT26 cells assessed as abnormality in lung at 15 to 45 mg/kg, ip qd treated for 14 days by H and E staining based analysis; type: organism-based; settings: in vivo, 336 h, dose 15-45 mg/kg, time 14 day
HCT-116 [31] = assay: Induction of apoptosis in human HCT-116 cells assessed as early apoptotic cells at 0.6 uM incubated for 48 hrs by Annexin V-FITC/PI staining based flow cytometry (reference value: 1.12 %); type: functional
[32] = target: T1, Peptidyl-prolyl cis-trans isomerase A; assay: Binding affinity to PPIA in human HCT-116 cells assessed as protein stability incubated for 30 mins followed by pronase addition measured after 30 mins by DARTS assay; type: cell-based; settings: dose <= 6.0 µM, time 60.0 min
HCT-116 [33] = assay: Induction of DNA damage in human HCT-116 cells assessed as increase in gamma-H2AX level at 0.3 to 1.2 uM incubated for 48 hrs by Western blot analysis; type: functional, cell-based; settings: dose 0.3-1.2 µM
[34] = target: T1, Peptidyl-prolyl cis-trans isomerase A; assay: Binding affinity to PPIA (unknown origin) at 2 uM preincubated for 30 mins followed by Proteinase K addition measured after 10 mins by LiP-SMap analysis

T1 sequence (P62937 whole entry, looked up): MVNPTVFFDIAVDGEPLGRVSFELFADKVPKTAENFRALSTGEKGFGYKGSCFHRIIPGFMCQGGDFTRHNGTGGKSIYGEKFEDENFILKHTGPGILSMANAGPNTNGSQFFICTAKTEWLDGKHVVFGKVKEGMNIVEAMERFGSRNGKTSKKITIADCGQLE

Question: With `C=C(C(=O)OC)N1c2nc(Cl)nc(Cl)c2N2C(c3ccccc3F)OC(C(=O)OCC)(C(=O)OCC)C12` (racemic) as the molecule, how does the Activity (HCT-116 [1]) read?
Answer: No effect

Question: And the Activity [2]?
Answer: Non-toxic

Question: And the Activity (HCT-116 [3])?
Answer: 69.07%

Question: And the Activity (HCT-116 [4])?
Answer: Active

Question: And the Activity (HCT-116 [5])?
Answer: No effect

Question: And the mortality at 336 h [6]?
Answer: 60%

Question: And the Activity (HCT-116 [7])?
Answer: Active

Question: What about the Activity (HCT-116 [8]) of the same molecule?
Answer: 65.85%

Question: And the Activity (HCT-116 [9])?
Answer: 66.32%

Question: And the pIC50 (SW480)?
Answer: 5.59

Question: And the Activity (HCT-116 [10])?
Answer: inactive

Question: And the Activity (Homo sapiens)?
Answer: Active

Question: What about the Activity (HCT-116 [11]) of the same molecule?
Answer: Active

Question: What about the Activity (HCT-116 [12]) of the same molecule?
Answer: Dose-dependent-effect

Question: And the inhibition (CT26 [13])?
Answer: Dose-dependent-effect

Question: And the inhibition (HCT-116 [14])?
Answer: Dose-dependent-effect

Question: And the Activity [15]?
Answer: Non-toxic

Question: What about the Activity (HCT-116 [16]) of the same molecule?
Answer: Active

Question: What about the Activity (HCT-116 [17]) of the same molecule?
Answer: 4.87%

Question: What about the inhibition (HCT-116 [18]) of the same molecule?
Answer: inactive

Question: What about the Activity (HCT-116 [19]) of the same molecule?
Answer: 16.8%

Question: What about the Activity (HCT-116 [20]) of the same molecule?
Answer: Active

Question: What about the Activity (HCT-116 [21]) of the same molecule?
Answer: Dose-dependent-effect

Question: And the Activity (HCT-116 [22])?
Answer: Active

Question: What about the Activity [23] of the same molecule?
Answer: Non-toxic

Question: What about the Activity [24] of the same molecule?
Answer: Active; Activity Similar To Csa

Question: What about the Activity (HCT-116 [25]) of the same molecule?
Answer: 8.35%

Question: What about the Activity (HCT-116 [26]) of the same molecule?
Answer: 21.3%

Question: What about the Activity (HCT-116 [27]) of the same molecule?
Answer: Dose-dependent-effect

Question: What about the Activity (HCT-116 [28]) of the same molecule?
Answer: Active

Question: And the pIC50 (HeLa)?
Answer: 6.16

Question: What about the pIC50 (CT26 [29]) of the same molecule?
Answer: 6.07

Question: And the Activity [30]?
Answer: Non-toxic

Question: What about the Activity (HCT-116 [31]) of the same molecule?
Answer: 14.8%

Question: What about the Activity [32] of the same molecule?
Answer: Dose-dependent-effect

Question: And the Activity (HCT-116 [33])?
Answer: Active

Question: What about the Activity [34] of the same molecule?
Answer: Active
